The source of these data is US10765625B2, “Knottin-drug conjugates and methods of using the same” (THE BOARD OF TRUSTEES OF THE LELAND STANFORD JUNIOR …, priority 2016, dated 2020).

Test [1] has as its system U87MG cells. In words: Integrin-blocking competition: cell proliferation (CCK-8) after pre-treatment with EETI-2.5F (1). Type of test: cell-based. Conditions: 1 μM 1, 3 h pre-treatment and co-treatment. How it is done:
(§1) U87MG, and PANC-1 cells were grown in Dulbecco's Modified Eagle Medium (DMEM) with 10% fetal bovine serum (FBS) and 1% penicillin/streptomycin. MDA-MB-468 cells were grown in DMEM and Ham's F-12 medium (DMEM/F12) with 10% FBS and 1% penicillin/streptomycin. A2780 and BxPC3 cells were grown in Roswell Park Memorial Institute medium (RPMI) 1640+L-glutamine, with 10% FBS and 1% penicillin/streptomycin. D270 cells were grown in MEM (Richter's modification, no phenol red) with 10% FBS and 0.1% Gentamicin. Unless otherwise specified, cells were incubated at 37° C., 5% CO2. Flow cytometry was performed using an EMD Millpore Guava EasyCyte 8HT flow cytometer and the resulting data were evaluated using FlowJo software provided by TreeStar, Inc. Cell proliferation was measured using the Dojindo Cell Counting Kit-8 by replacing the media in each well with 100 μL of media containing 10% WST-8. After incubation for 1 h at 37° C., absorbance, A, at 450 nm was measured with a BioTek Synergy H4 microtiter plate reader. The background signal of CCK-8 alone was subtracted from all samples. Cell proliferation was then expressed as a percentage of absorbance relative to the control of untreated cells (Equation 2). Nonlinear regression analysis was performed using GraphPad Prism.
One possible explanation for the apparent hENT1-independence of 5d is that its route of internalization could be integrin-mediated. The role of integrin-binding in the biological potency and hENT1-independence of 5d was determined. A competition experiment was carried out in which U87MG cells were pre-treated with unconjugated EETI-2.5F (1) in order to block integrins on the cell surface. The role of integrin-binding was studied by measuring the proliferation of U87MG cells that had been pre-treated with EETI-2.5F (1) when exposed to increasing doses of 3 and KDCs 5a, 5c, and 5d. […] Media used to prepare varying concentrations of drug, protein, or protein-drug conjugate also contained 1 μM of 1. Prior to treatment, cells were incubated for 3 h at 37° C., 5% CO2 with fresh media containing 1 μM 1. After this pre-treatment, cells were incubated with varying concentrations of 5a, 5c, or 5d for 24 h and then media was replaced with fresh media and cells were incubated for an additional 48 h. Cell proliferation was measured using the Cell Counting Kit-8 by replacing the media in each well with 100 μL of media containing 10% WST-8. After incubation for 1 h at 37° C., absorbance at 450 nm was measured with a Synergy H4 microtiter plate reader. Cell proliferation was measured according to the method described in Section 1.3. Error bars represent the standard deviation of experiments performed in triplicate.

The subject of test [2] is U87MG cells. The experiment in a line: Competition binding assay with AF488-labeled EETI-2.5F (AF488-1), flow cytometry. To be noted: competition with 1 nM AF488-1, 4° C., 3 hours, read-out: IC50 (nM), binding affinity. How it is done:
Once the knottin-drug conjugates 5a-d were prepared, their binding affinity to U87MG glioblastoma cells, which are known to have elevated expression of tumor-associated integrins, was tested. […] To measure the relative binding affinities of knottins 1 and 2 and KDCs 5a-d, competition binding assays were performed using AlexaFluor 488-conjugated EETI-2.5F (AF488-1) as previously described (J. W. Kim, et al., J. Am. Chem. Soc. 2015, 137, 6-9). Cells (5×10^4 per sample) were detached with 0.05% Trypsin-EDTA, washed with IBB (25 mM Tris pH 7.4, 150 mM NaCl, 2 mM CaCl2, 1 mM MgCl2, 1 mM MnCl2, and 0.1% bovine serum albumin), and incubated with 1 nM AF488-1 and varying concentrations of competitors in 800 μL of IBB at 4° C. for 3 hours. The cells were washed twice with 800 μL of PBSA (phosphate buffered saline containing 0.1% bovine serum albumin) and the fluorescence of the surface-bound AF488-1 was determined using flow cytometry. The fluorescence was normalized to that of cells treated with AF488-1 alone to obtain the fraction bound. Half-maximal inhibitory concentration (IC50) values were determined by nonlinear regression analysis. Error bars represent the standard deviation of experiments performed in triplicate.

Test [3] deals with U87MG cells. In words: Cell proliferation, CCK-8 colorimetric assay. The test is classed as cell-based. Here is the method:
as §1
Next, the potency of each KDC was tested in a cell-proliferation experiment. […] Cells were seeded in a 96-well plate at a density of 2,500 cells per well and grown overnight at 37° C., 5% CO2 in DMEM with 10% FBS and 1% penicillin/streptomycin. Cells were subsequently treated with 100 μL of fresh media, containing varying concentrations of drug, protein, or protein-drug conjugate and incubated for 4 d at 37° C., 5% CO2. Cell proliferation was measured according to the method described in Section 1.3. Error bars represent the standard deviation of experiments performed in triplicate. […] Given that the linker must be cleaved to release free Gemcitabine in order for the payload to become active, the low potency of 5b can be explained by the greater stability of the carbamate group as compared to the other linkers tested.
A general note: Formazan colour is commonly taken as a measure of viable cells.

Test [4] concerns U87MG cells. The experiment in a line: Premature drug release study: cell proliferation (CCK-8) with hENT1 inhibitor 6 co-administered. Type of test: cell-based. Conditions: for Effect of hENT1 inhibitor 6 on potency (ED50) (in words): U87MG cells, increasing concentrations of 6 up to 10 μM; for Fold Increase in ED50 in U87MG Cells: ED50 with 6 / ED50 without 6, minus 1. Here is the method: as §1
The relative extent of premature drug-release in the cases of 5a, 5c, and 5d was next determined in order to identify the linker best-suited for delivering the drug payload intracellularly. An established technique for blocking the cellular uptake of Gemcitabine by using S (4-nitrobenzyl)-6-thioinosine (6) was employed, which is known to inhibit human equilibrative nucleoside transporters, such as hENT1. Because hENT1 is a critical regulator of the cellular internalization of Gemcitabine, it was reasoned that by inhibiting its activity with 6, the cytotoxic effect of any drug payload that was released in the extracellular environment could be diminished. It was anticipated that this would allow the distinction between KDCs that were potent due to the undesirable release of Gemcitabine outside of the cell from those that released Gemcitabine intracellularly (FIG. 6). The extent of premature drug release in the extracellular environment was studied by inhibiting activity of nucleoside transporters (such as hENT1) of U87MG cells through the use of the hENT1 inhibitor S-(4-nitrobenzyl)-6-thioinosine (6). […] In a similar fashion, it was expected that for KDCs which released a significant amount of the drug payload in the extracellular environment, an increase in the concentration of 6 should result in a concomitant increase in ED50 value.
Media used to prepare varying concentrations of drug, protein, or protein-drug conjugate also contained varying concentrations of the hENT1 inhibitor, 6. Additionally, prior to treatment, cell were incubated at 37° C., 5% CO2 with fresh media containing the varying concentrations of 6 for 2 h. Cell proliferation was measured using the Cell Counting Kit-8 by replacing the media in each well with 100 μL of media containing 10% WST-8. After incubation for 1 h at 37° C., absorbance at 450 nm was measured with a Synergy H4 microtiter plate reader. ED50 values were determined by nonlinear regression analysis. Example dose-response curves for 3 (FIG. 7) and 5d (FIG. 8) are provided. Cell proliferation was measured according to the method described in Section 1.3. Error bars represent the standard deviation of experiments performed in triplicate.
These values were normalized as Fold Increase in ED50 (defined in Equation 2) by dividing the ED50 of each drug when 6 was co-administered at concentration=C by the ED50 of that same drug when no 6 was added, then subtracting 1 (thus, a “0-fold increase” would mean no increase, while a “1-fold increase” would mean that the ED50 value had doubled). Fold Increase in ED50 for each drug at each concentration of 6 is provided in Table 5, and these values were used to generate FIG. 9.

Test [5] deals with BxPC3 pancreatic cancer cells. In words: Cell proliferation, CCK-8 colorimetric assay. The test is classed as cell-based. To be noted: Homo sapiens, BXPC-3, 96 h, 4 d after treatment, read-out: ED50 (nM), cell growth inhibition. Here is the method:
as §1
(§2) Having identified KDC 5d as a potent inhibitor of U87MG cells with desirable payload-release properties, its efficacy against a variety of other cell lines in comparison with Gemcitabine (3) was next tested. Cells were seeded in a 96-well plate at a density of 2,500 cells per well and grown overnight at 37° C., 5% CO2 in the media described in Section 1.3. Cells were subsequently treated with 100 μL of fresh media, containing 50 nM of 3 or 5d. Cells were incubated at 37° C., 5% CO2 for 4 d. Cell proliferation was measured using the Cell Counting Kit-8 by replacing the media in each well with 100 μL of media containing 10% WST-8. After incubation for 1 h at 37° C., absorbance at 450 nm was measured with a Synergy H4 microtiter plate reader. Cell proliferation was measured according to the method described in Section 1.3. Error bars represent the standard deviation of experiments performed in triplicate.

For test [6], the system named is PANC-1 pancreatic cancer cells. In words: Cell proliferation, CCK-8 colorimetric assay. The test is classed as cell-based. Conditions: Homo sapiens, 96 h, 4 d after treatment, read-out: ED50 (nM), cell growth inhibition. Here is the method: as §1, §2
A further test concerns D270 glioblastoma cells. The experiment in a line: Cell proliferation, CCK-8 colorimetric assay. The test is classed as cell-based. To be noted: 96 h, 4 d after treatment, read-out: ED50 (nM), cell growth inhibition. How it is done: as §1, §2
Test [7] has as its system MDA-MB-468 breast cancer cells. In words: Cell proliferation, CCK-8 colorimetric assay. Type of test: cell-based. Conditions: Homo sapiens, MDA-MB-468, 96 h, 4 d after treatment, read-out: ED50 (nM), cell growth inhibition. How it is done:
as §1, §2

The subject of test [8] is A2780 ovarian cancer cells. The experiment in a line: Cell proliferation, CCK-8 colorimetric assay. Type of test: cell-based. To be noted: Homo sapiens, 96 h, 4 d after treatment, read-out: ED50 (nM), cell growth inhibition. How it is done: as §1, §2

Like-named read-outs stand apart in the source and are kept apart here.

In general, IC50 refers to the concentration needed to halve the response being measured. For `CC(C)C[C@@H]1NC(=O)[C@@H]2CSSC[C@@H](C(=O)NCC(=O)O)NC(=O)[C@H](Cc3ccccc3)NC(=O)CNC(=O)[C@H](CC(N)=O)NC(=O)[C@@H]3CCCN3C(=O)CNC(=O)[C@@H]3CSSC[C@H](NC(=O)[C@H]([C@@H](C)O)NC(=O)[C@H](CC(C)C)NC(=O)[C@@H]4CCCN4C(=O)[C@@H]4CCCN4C(=O)[C@H](CC(N)=O)NC(=O)[C@H](CC(=O)O)NC(=O)CNC(=O)[C@H](CCCNC(=N)N)NC(=O)[C@@H]4CCCN4C(=O)[C@H](CCCNC(=N)N)NC(=O)[C@@H]4CCCN4C(=O)[C@@H](NC(=O)CN)CSSC[C@H](NC(=O)CNC(=O)[C@H](C)NC1=O)C(=O)N[C@@H](C(C)C)C(=O)N3)C(=O)N[C@@H](CCCn1cc(CCC(=O)Nc3ccn([C@@H]4O[C@H](CO)[C@@H](O)C4(F)F)c(=O)n3)nn1)C(=O)N[C@@H](CCC(N)=O)C(=O)N[C@@H](CC(=O)O)C(=O)N[C@@H](CO)C(=O)N[C@@H](CC(=O)O)C(=O)N2` [5c], in the test on U87MG cells [1], the “Effect of integrin blocking by pre-treatment with 1 on potency (in words)” value was “did not diminish the potency”. Also, in the test on U87MG cells [2], the IC50 amounted to 2.8 ± 0.2 nM. Moreover, the “Potency / growth inhibition in U87MG cells (in words)” value in the test on U87MG cells [3] (U87MG cells, 4 d) is reported as “low-nanomolar ED50 values”. The EC50 with U87MG cells [3] (U87MG cells, 4 d incubation, vs untreated control, read-out: ED50 (nM), potency) was 8.9 ± 1.2 nM. In addition, the “Effect of hENT1 inhibitor 6 on potency (ED50) (in words)” value in the test with U87MG cells [4] is reported as “much less sensitive”. The “Fold Increase in ED50 in U87MG Cells” value amounted to 0 with U87MG cells [4] ([6] = 0 nM); 0.5 ± 0.2 with U87MG cells [4] ([6] = 1 nM); 1.0 ± 0.2 in the test on U87MG cells [4] ([6] = 10 nM); 7.8 ± 4.8 with U87MG cells [4] ([6] = 100 nM); 18.0 ± 5.2 in the test with U87MG cells [4] ([6] = 1000 nM); 31.1 ± 5.1 in the test on U87MG cells [4] ([6] = 10000 nM).
Consider `Nc1ccn([C@@H]2O[C@H](CO)[C@@H](O)C2(F)F)c(=O)n1` [compound 3, Gemcitabine, reference compound], for which the “Effect of integrin blocking by pre-treatment with 1 on potency (in words)” value in the test on U87MG cells [1] is reported as “no effect on potency”. Also, the EC50 in the test with U87MG cells [3] (Homo sapiens, U-87 MG, 96 h, U87MG cells, 4 d incubation, vs untreated control, read-out: ED50 (nM), potency) is 1.1 ± 1.4 nM; with U87MG cells [3] (Homo sapiens, U-87 MG, 96 h, U87MG glioblastoma, 4 d after treatment, read-out: ED50 (nM), cell growth inhibition), 1.7 ± 1.4 nM; in [5] it was 18.4 ± 1.3 nM; in test [6] it was 52.8 ± 4.9 nM; with D270 glioblastoma cells it was 1.5 ± 0.4 nM; in test [7] it was 17.3 ± 6.8 nM. Moreover, the EC50 in [8] was 0.5 ± 0.02 nM. The “Effect of hENT1 inhibitor 6 on potency (ED50) (in words)” value in the test with U87MG cells [4] is on record as “increased significantly”. The “Fold Increase in ED50 in U87MG Cells” value in the test on U87MG cells [4] ([6] = 0 nM) was 0; in the test with U87MG cells [4] ([6] = 1 nM), 0.2 ± 0.4; with U87MG cells [4] ([6] = 10 nM), 1.5 ± 0.1; with U87MG cells [4] ([6] = 100 nM) it was 15.8 ± 0.3; in the test on U87MG cells [4] ([6] = 1000 nM), 44.7 ± 0.3; in the test on U87MG cells [4] ([6] = 10000 nM), 128.6 ± 2.8.
